Assay [1] deals with T1, ovine COX-1 (Ovis aries, UniProt P05979).
T1 construct: purchased
Kind of assay: COX-1 inhibitory activity, colourimetric COX inhibitor screening assay kit. The class given is biochemical. As to the method: (§1) The inhibitory COX activity was assayed colourimetrically by examining the inhibition of the ovine COX-1 and human recombinant COX-2 enzymes as described by George et al.[38], using a COX inhibitor screening assay kit. The detailed procedures were described in the supplementary file.
(§2) The inhibitory COX activity was assayed colourimetrically by examining the inhibition of the ovine COX-1 and human recombinant COX-2 enzymes as described by George et al. ^2, using a COX inhibitory screening assay kit. This assay determines the COX peroxidase activity by monitoring the appearance of N,N,N',N'-tetramethyl-p-phenylenediamine (TMPD). Assay buffer (150 μL 0.1 M Tris–HCl pH 8.0), 10 μL heme and 10μL enzyme (COX-1 or COX-2) were added in each well. Ten μL of each tested sample concentration was added to each well and incubated for 15 minutes at 37°C. After incubation, 20 μL of TMPD was added to each well. For initiating the reaction, 10 μL 10 mM arachidonic acid was added and the plates were further incubated for another 2 minutes at 37°C. For terminating the reaction, 50 μL 1 N HCl and saturated stannous chloride were added.
(§3) Reaction mixture containing assay buffer and heme acted as the blank and a mixture with either COX-1 or COX-2 assay buffer and heme acted as the 100% initial activity (IA). […] The absorbances of oxidized TMPD (blue colour) were read in ELISA plate reader at 590 nm. The % inhibition was calculated using the following formula:
(§4) COX % Inhibition= [(100%IA−Inhibitor)/ 100% IA x 100]. Where, IA: 100% initial activity.
(§5) The concentration at which the tested sample produces 50% inhibition of COX-1 and/or COX-2 (IC50) was determined. The selectivity index (SI) was calculated also as IC50 (COX-1)/ (COX-2).

Assay [2] concerns the target T2, human recombinant COX-2 (Homo sapiens, UniProt P35354).
T2 construct: purchased
T2 sequence (P35354 18-604): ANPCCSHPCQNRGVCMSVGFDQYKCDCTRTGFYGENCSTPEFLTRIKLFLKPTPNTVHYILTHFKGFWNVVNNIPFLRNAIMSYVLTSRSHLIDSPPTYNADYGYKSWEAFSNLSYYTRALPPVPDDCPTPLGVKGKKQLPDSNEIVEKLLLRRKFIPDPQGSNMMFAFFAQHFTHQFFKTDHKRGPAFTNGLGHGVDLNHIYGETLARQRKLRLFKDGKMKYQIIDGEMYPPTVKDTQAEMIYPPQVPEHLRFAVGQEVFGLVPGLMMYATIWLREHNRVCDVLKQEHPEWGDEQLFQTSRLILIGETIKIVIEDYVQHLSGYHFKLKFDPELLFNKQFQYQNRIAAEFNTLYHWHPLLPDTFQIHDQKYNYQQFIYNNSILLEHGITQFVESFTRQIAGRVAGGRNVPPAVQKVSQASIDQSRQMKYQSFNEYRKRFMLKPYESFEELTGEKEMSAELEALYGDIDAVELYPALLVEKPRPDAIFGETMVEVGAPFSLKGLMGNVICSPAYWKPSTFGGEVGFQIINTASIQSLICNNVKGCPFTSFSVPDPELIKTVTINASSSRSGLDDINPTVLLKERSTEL
Put plainly: COX-2 inhibitory activity, colourimetric COX inhibitor screening assay kit. The class given is biochemical. The settings on record: for IC50: human recombinant COX-2; for SI (COX-1/COX-2): selectivity index calculated as IC50 (COX-1)/(COX-2). As to the method: as §1, §2, §3, §4, §5

Assay [3] has as its system H. pylori ATCC 700392. Put plainly: anti-Helicobacter pylori activity, microwell dilution method with MTT. The class given is cell-based. The settings on record: for MIC: read-out: MIC (H. pylori); for MIC (H. pylori): ND = not detected. As to the method: The anti-Helicobacter pylori activity of the PF and NPF as well as the isolated compounds was evaluated against H. pylori ATCC 700392 (type strain, obtained from the American Type Culture Collection unit (ATCC), using microwell dilution method and clarithromycin as standard drug[37]. The detailed procedures were described in the supplementary file.
The anti-Helicobacter pylori activity of the PF and NPF as well as the isolated compounds was evaluated against H. pylori ATCC 700392 (a type strain, obtained from the American Type Culture Collection unit (ATCC), using microwell dilution method and clarithromycin as standard drug ^1. The tested samples were prepared in dimethyl sulfoxide and successive ten twofold dilutions (125- 0.24 µg/mL) were carried out in a 96-well plate. Each microplate well included forty μL of Brain Heart Infusion growth medium and 10% fetal bovine serum (FBS), ten μL of inoculum and fifty μL of the tested sample. The plates were incubated for 3 days, in 5% oxygen, 10% carbon dioxide, 85 % nitrogen atmosphere at 37°C. Forty μL of 3- (4, 5-dimethyl-thiazol-2-yl)- 2,5-diphenyl-tetrazolium bromide (MTT) at a final concentration of 0.5 mg/mL freshly prepared in H2O was added to each well and incubated for 30 min. The bacteria were biologically active when change to purple color was observed ^1. While no change in MTT color indicated inhibition. Solvent control (DMSO) and the standard antibiotic (clarithromycin) were used as negative and positive controls, respectively. The H. pylori inhibition % was calculated using the given formula:
% Inhibition = Abs control – Abs sample × 100 /Abs control.

Assay [4] relates to RAW 264.7 macrophage cell line (NO). Put plainly: nitric oxide (NO) inhibitory activity in lipopolysaccharide-stimulated macrophages. Type of assay: cell-based, murine. Conditions: Mus musculus, RAW264.7, RAW 264.7 cells, 1 µg/mL lipopolysaccharide. As to the method:
The detailed procedures were described in the supplementary file.
The cell was incubated at 37 °C in 5% carbon dioxide. RAW 264.7 cells were seeded onto a 96-well plate (1×10^5 cells/well) and incubated for 24 h. […] Followed by incubation, the cells stimulated with 1µg/mL of lipopolysaccharide for another 24 h. The supernatant was gently transferred to new 96-well plates and used for NO determination. L-N 6 - (1-iminoethyl) lysine hydrochloride), is used as standard drug. The absorbance (Abs) was measured in a microplate reader at 540 nm ^3. The percentage inhibition was calculated using the following formula:
Inhibition (%) = 1-[Control-Test] Control × 100.

Setting [5] is: concentration required for 100% inhibition, H. pylori ATCC 700392.

Molecules are shown by their SMILES. Converted amounts (≈) assume the structure as drawn. “And” between values parts separate entries of the source, which are not always exact repeats. Equal values may be shown once. Read-outs that look alike come from different tables or passages of the source.

T1 sequence (P05979 25-600): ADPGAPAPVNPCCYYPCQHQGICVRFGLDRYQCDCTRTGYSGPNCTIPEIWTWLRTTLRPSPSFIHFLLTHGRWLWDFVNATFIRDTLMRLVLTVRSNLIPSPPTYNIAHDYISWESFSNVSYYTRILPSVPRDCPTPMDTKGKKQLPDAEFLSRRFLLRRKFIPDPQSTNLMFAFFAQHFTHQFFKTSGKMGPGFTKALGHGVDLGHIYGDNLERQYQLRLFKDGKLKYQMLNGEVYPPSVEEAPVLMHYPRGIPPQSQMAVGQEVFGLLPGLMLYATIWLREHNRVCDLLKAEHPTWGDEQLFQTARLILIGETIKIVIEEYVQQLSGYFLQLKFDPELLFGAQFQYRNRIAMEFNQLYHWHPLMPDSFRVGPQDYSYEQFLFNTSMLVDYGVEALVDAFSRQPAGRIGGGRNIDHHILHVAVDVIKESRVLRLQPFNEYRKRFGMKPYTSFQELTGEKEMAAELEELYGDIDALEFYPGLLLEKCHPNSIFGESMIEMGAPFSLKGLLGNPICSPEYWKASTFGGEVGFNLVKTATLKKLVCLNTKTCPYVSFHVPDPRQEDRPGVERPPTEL

For `COc1c(O)cc2occ(-c3ccc(O)cc3)c(=O)c2c1O` [Tectorigenin (P4), 4′,5,7-trihydroxy-6-methoxyisoflavone], the IC50 in assay [1] was 407 µM; in assay [2] (ND = not detected), 189 µM; in assay [4], more than 416 µM; in assay [4] (ND = not detected), more than 125 µg/mL. Also, the “SI (COX-1/COX-2)” value in assay [2] is on record as 2.16. Also, the MIC is 15.6 µg/mL and 52 µM in assay [3] (Helicobacter pylori, ATCC700392); 52.05 µM (≈ 15.6 µg/mL) in assay [3] (setting [5]). Also, the “MIC (H. pylori)” value in assay [3] (setting [5]) is on record as 15.63 µg/mL (≈ 52.1 µM).
Consider `CC(C)[C@H]1CC[C@H]2[C@@]1(C)CC[C@@]1(C)[C@@H]3CC[C@H]4C(C)(C)[C@@H](O)CC[C@]4(C)C3=CC[C@]21C` [Isoarborinol (N1), isoarborinol], for which the IC50 in assay [1] (ovine COX-1, read-out: IC50 (COX-1)) was 73.3 ± 1 µM; in assay [2] it was 51.8 ± 2.1 µM; in assay [4], 44.3 ± 1.7 µM. In assay [2], the “SI (COX-1/COX-2)” value is 1.42. Also, in assay [3] (setting [5]), the “MIC (H. pylori)” value was “no H. pylori inhibitory potential”.

As usually defined, the IC50 is the concentration that inhibits the measured activity by half. As a reminder, the MIC is the smallest concentration in the dilution series that meets the test's criterion for growth inhibition.

Values taken from article PMC9259591, “Irigenin, a novel lead from Iris confusa for management of Helicobacter pylori infection with selective COX-2 and HpIMPDH inhibitory potential” (Scientific Reports, 2022).
